Strand notation (5' to 3'): a small letter for the sugar, then the base; units joined by * are phosphorothioate-linked, units joined directly phosphodiester-linked; [ ] holds rarer units or linkages, { } end groups; capitals alone tell only the bases. e = 2'-O-(2-methoxyethyl) (MOE); [5mC] = 5-methylcytosine; d = 2'-deoxy (DNA)
Assays:
Type in all cases: cell-based
human Factor 11 mRNA [1] = test: Antisense inhibition of human Factor 11 in HepG2 cells by microwalk gapmers, lipofectin, 75 nM (Example 3); settings: HepG2 cells, lipofectin, gapmers targeted to nucleobases 1275 to 1318 of SEQ ID NO: 1
How it was run: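 HepG2 cells (10,000/well) were transfected via lipofectin with 75 nM 20-mer MOE gapmers (phosphorothioate, 5-methyl-C) for about 24 h. Factor 11 mRNA was measured by qRT-PCR, normalized to RIBOGREEN total RNA, and given as percent inhibition versus untreated cells.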

human Factor 11 mRNA [2] = test: Antisense inhibition of human Factor 11 in HepG2 cells, electroporation, 8,000 nM (Example 30); settings: electroporation, 8,000 nM antisense oligonucleotide
Procedure: These microwalk gapmers were tested in vitro. Cultured HepG2 cells at a density of 20,000 cells per well were transfected using electroporation with 8,000 nM antisense oligonucleotide. After a treatment period of approximately 24 hours, RNA was isolated from the cells and Factor 11 mRNA levels were measured by quantitative real-time PCR. Factor 11 mRNA levels were adjusted according to total RNA content, as measured by RIBOGREEN. Results are presented as percent inhibition of Factor 11, relative to untreated control cells.
The chimeric antisense oligonucleotides in Table 44 were designed as 5-10-5 MOE, 5-8-5 and 6-8-6 MOE gapmers. The first two listed gapmers in Table 44 are the original gapmers (ISIS 416850 and ISIS 416858) from which ISIS 445493-445543 were designed via microwalk, and are designated by an asterisk. The 5-10-5 gapmers are 20 nucleotides in length, wherein the central gap segment is comprised of ten 2′-deoxynucleotides and is flanked on both sides (in the 5′ and 3′ directions) by wings comprising five nucleotides each. The 5-8-5 gapmers are 18 nucleotides in length, wherein the central gap segment is comprised of eight 2′-deoxynucleotides and is flanked on both sides (in the 5′ and 3′ directions) by wings comprising five nucleotides each. The 6-8-6 gapmers are 20 nucleotides in length, wherein the central gap segment is comprised of eight 2′-deoxynucleotides and is flanked on both sides (in the 5′ and 3′ directions) by wings comprising six nucleotides each. For each of the motifs (5-10-5, 5-8-5 and 6-8-6), each nucleotide in the 5′ wing segment and each nucleotide in the 3′ wing segment has a 2′-MOE modification. The internucleoside linkages throughout each gapmer are phosphorothioate (P=S) linkages. All cytidine residues throughout each gapmer are 5-methylcytidines. “Human Target start site” indicates the 5′-most nucleotide to which the gapmer is targeted in the human sequence. “Human Target stop site” indicates the 3′-most nucleotide to which the gapmer is targeted in the human sequence. Each gapmer listed in Table 44 is targeted to SEQ ID NO: 1 (GENBANK Accession No. NM_000128.3). Each gapmer is Table 44 is also fully cross-reactive with the rhesus monkey Factor 11 gene sequence, designated herein as SEQ ID NO: 274 (exons 1-15 GENBANK Accession No. NW_001118167.1). ‘Rhesus monkey start site’ indicates the 5′-most nucleotide to which the gapmer is targeted in the rhesus monkey sequence. ‘Rhesus monkey stop site’ indicates the 3′-most nucleotide to which the gapmer is targeted to the rhesus monkey sequence.

human Factor 11 mRNA [3] = test: Dose-dependent inhibition of human Factor 11 in HepG2 cells, electroporation 123.46-10,000 nM (Example 31)
Procedure: Cells were plated at a density of 20,000 cells per well and transfected using electroporation with 123.46 nM, 370.37 nM, 1,111.11 nM, 3,333.33 nM and 10,000 nM concentrations of antisense oligonucleotide, as specified in Table 45. After a treatment period of approximately 16 hours, RNA was isolated from the cells and Factor 11 mRNA levels were measured by quantitative real-time PCR. Human Factor 11 primer probe set RTS 2966 was used to measure mRNA levels. Factor 11 mRNA levels were adjusted according to total RNA content, as measured by RIBOGREEN. Results are presented as percent inhibition of Factor 11, relative to untreated control cells.

Substance | Percent inhibition of human Factor 11 mRNA levels (human Factor 11 mRNA [2]) [%] | further results
416855 (antisense e[5mC]*eA*eT*eT*eG*dG*dT*dG*d[5mC]*dA*d[5mC]*dA*dG*dT*dT*eT*e[5mC]*eT*eG*eG) [compound 416855] | 85 | % inhibition (human Factor 11 mRNA [1]): 87%
445538 (antisense eA*eG*e[5mC]*eG*eG*dA*d[5mC]*dG*dG*d[5mC]*dA*dT*dT*eG*eG*eT*eG*e[5mC]) [compound 445538] | 80 | –
445532 (antisense e[5mC]*eG*eG*e[5mC]*eA*dT*dT*dG*dG*dT*dG*d[5mC]*dA*e[5mC]*eA*eG*eT*eT) [compound 445532] | 89 | Percent inhibition of Factor 11 mRNA at 123.47 nM (human Factor 11 mRNA [3]; electroporation, 123.47 nM, approx. 16 hours, relative to untreated control cells): 5%; Percent inhibition of Factor 11 mRNA at 370.37 nM (human Factor 11 mRNA [3]; electroporation, 370.37 nM, approx. 16 hours, relative to untreated control cells): 12%; Percent inhibition of Factor 11 mRNA at 1,111.11 nM (human Factor 11 mRNA [3]; electroporation, 1,111.11 nM, approx. 16 hours, relative to untreated control cells): 39%; Percent inhibition of Factor 11 mRNA at 3,333.33 nM (human Factor 11 mRNA [3]; electroporation, 3,333.33 nM, approx. 16 hours, relative to untreated control cells): 60%; Percent inhibition of Factor 11 mRNA at 10,000.0 nM (human Factor 11 mRNA [3]; electroporation, 10,000.0 nM, approx. 16 hours, relative to untreated control cells): 70%; IC50 (human Factor 11 mRNA [3]; electroporation, Factor 11 mRNA expression): 2000 nM
445536 (antisense e[5mC]*eG*eG*eA*e[5mC]*dG*dG*d[5mC]*dA*dT*dT*dG*dG*eT*eG*e[5mC]*eA*e[5mC]) [compound 445536] | 82 | –
445543 (antisense e[5mC]*eT*eG*eG*e[5mC]*dA*dG*d[5mC]*dG*dG*dA*d[5mC]*dG*eG*e[5mC]*eA*eT*eT) [compound 445543] | 74 | –
445515 (antisense eT*eG*eG*e[5mC]*eA*eG*d[5mC]*dG*dG*dA*d[5mC]*dG*dG*d[5mC]*eA*eT*eT*eG*eG*eT) [compound 445515] | 75 | –
445517 (antisense eA*e[5mC]*eT*eG*eG*e[5mC]*dA*dG*d[5mC]*dG*dG*dA*d[5mC]*dG*eG*e[5mC]*eA*eT*eT*eG) [compound 445517] | 74 | –
445516 (antisense e[5mC]*eT*eG*eG*e[5mC]*eA*dG*d[5mC]*dG*dG*dA*d[5mC]*dG*dG*e[5mC]*eA*eT*eT*eG*eG) [compound 445516] | 79 | –
445539 (antisense e[5mC]*eA*eG*e[5mC]*eG*dG*dA*d[5mC]*dG*dG*d[5mC]*dA*dT*eT*eG*eG*eT*eG) [compound 445539] | 79 | –
445497 (antisense eG*eT*eG*e[5mC]*eA*e[5mC]*dA*dG*dT*dT*dT*d[5mC]*dT*dG*eG*e[5mC]*eA*eG*eG*e[5mC]) [compound 445497] | 81 | –
416853 (antisense eT*eT*eG*eG*eT*dG*d[5mC]*dA*d[5mC]*dA*dG*dT*dT*dT*d[5mC]*eT*eG*eG*e[5mC]*eA) [compound 416853] | 84 | % inhibition (human Factor 11 mRNA [1]): 91%
445525 (antisense eG*eG*eT*eG*e[5mC]*dA*d[5mC]*dA*dG*dT*dT*dT*d[5mC]*eT*eG*eG*e[5mC]*eA) [compound 445525] | 85 | –
445493 (antisense eA*e[5mC]*eA*eG*eT*eT*dT*d[5mC]*dT*dG*dG*d[5mC]*dA*dG*eG*e[5mC]*e[5mC]*eT*e[5mC]*eG) [compound 445493] | 69 | –
445541 (antisense eG*eG*e[5mC]*eA*eG*d[5mC]*dG*dG*dA*d[5mC]*dG*dG*d[5mC]*eA*eT*eT*eG*eG) [compound 445541] | 80 | –
445506 (antisense eA*e[5mC]*eG*eG*e[5mC]*eA*dT*dT*dG*dG*dT*dG*d[5mC]*dA*e[5mC]*eA*eG*eT*eT*eT) [compound 445506] | 86 | –
445533 (antisense eA*e[5mC]*eG*eG*e[5mC]*dA*dT*dT*dG*dG*dT*dG*d[5mC]*eA*e[5mC]*eA*eG*eT) [compound 445533] | 87 | –

Substance | Percent inhibition of human Factor 11 mRNA levels (human Factor 11 mRNA [2]) [%] | further results
445519 (antisense e[5mC]*eA*eG*eT*eT*dT*d[5mC]*dT*dG*dG*d[5mC]*dA*dG*eG*e[5mC]*e[5mC]*eT*e[5mC]) [compound 445519] | 81 | –
445500 (antisense eT*eT*eG*eG*eT*eG*d[5mC]*dA*d[5mC]*dA*dG*dT*dT*dT*e[5mC]*eT*eG*eG*e[5mC]*eA) [compound 445500] | 81 | –
445510 (antisense eG*e[5mC]*eG*eG*eA*e[5mC]*dG*dG*d[5mC]*dA*dT*dT*dG*dG*eT*eG*e[5mC]*eA*e[5mC]*eA) [compound 445510] | 88 | –
445529 (antisense e[5mC]*eA*eT*eT*eG*dG*dT*dG*d[5mC]*dA*d[5mC]*dA*dG*eT*eT*eT*e[5mC]*eT) [compound 445529] | 85 | –
445526 (antisense eT*eG*eG*eT*eG*d[5mC]*dA*d[5mC]*dA*dG*dT*dT*dT*e[5mC]*eT*eG*eG*e[5mC]) [compound 445526] | 81 | –
445524 (antisense eG*eT*eG*e[5mC]*eA*d[5mC]*dA*dG*dT*dT*dT*d[5mC]*dT*eG*eG*e[5mC]*eA*eG) [compound 445524] | 75 | –
416854 (antisense eA*eT*eT*eG*eG*dT*dG*d[5mC]*dA*d[5mC]*dA*dG*dT*dT*dT*e[5mC]*eT*eG*eG*e[5mC]) [compound 416854] | 86 | % inhibition (human Factor 11 mRNA [1]): 90%
416865 (antisense eT*eG*eG*e[5mC]*eA*dG*d[5mC]*dG*dG*dA*d[5mC]*dG*dG*d[5mC]*dA*eT*eT*eG*eG*eT) [compound 416865] | 86 | % inhibition (human Factor 11 mRNA [1]): 88%
445520 (antisense eA*e[5mC]*eA*eG*eT*dT*dT*d[5mC]*dT*dG*dG*d[5mC]*dA*eG*eG*e[5mC]*e[5mC]*eT) [compound 445520] | 82 | –
445512 (antisense e[5mC]*eA*eG*e[5mC]*eG*eG*dA*d[5mC]*dG*dG*d[5mC]*dA*dT*dT*eG*eG*eT*eG*e[5mC]*eA) [compound 445512] | 79 | –
445507 (antisense eG*eA*e[5mC]*eG*eG*e[5mC]*dA*dT*dT*dG*dG*dT*dG*d[5mC]*eA*e[5mC]*eA*eG*eT*eT) [compound 445507] | 85 | –
445528 (antisense eA*eT*eT*eG*eG*dT*dG*d[5mC]*dA*d[5mC]*dA*dG*dT*eT*eT*e[5mC]*eT*eG) [compound 445528] | 73 | –
416862 (antisense eA*eG*e[5mC]*eG*eG*dA*d[5mC]*dG*dG*d[5mC]*dA*dT*dT*dG*dG*eT*eG*e[5mC]*eA*e[5mC]) [compound 416862] | 89 | % inhibition (human Factor 11 mRNA [1]): 90%
445501 (antisense eA*eT*eT*eG*eG*eT*dG*d[5mC]*dA*d[5mC]*dA*dG*dT*dT*eT*e[5mC]*eT*eG*eG*e[5mC]) [compound 445501] | 83 | –
445542 (antisense eT*eG*eG*e[5mC]*eA*dG*d[5mC]*dG*dG*dA*d[5mC]*dG*dG*e[5mC]*eA*eT*eT*eG) [compound 445542] | 83 | –
445502 (antisense e[5mC]*eA*eT*eT*eG*eG*dT*dG*d[5mC]*dA*d[5mC]*dA*dG*dT*eT*eT*e[5mC]*eT*eG*eG) [compound 445502] | 83 | –
